Laboratory results: publication PMC5675618, “Identification and validation of FGFR2 peptide for detection of early Barrett's neoplasia” (Oncotarget, 2017)

Tests used:
[1] = test system: QhTERT cells that express FGFR2c; test: Apparent dissociation constant by flow cytometry; assay type: binding, human; conditions: 0 to 200 nM in PBS in 25 nM increments, 4°C, 1 hour; mean fluorescence intensity by flow cytometry; non-linear fit R^2 = 0.96; representative of 3 independent experiments
Description: We measured the apparent dissociation constant kd for peptide binding to cells to assess binding affinity. The Cy5.5-labeled peptide was serially diluted in PBS at concentrations ranging from 0 to 200 nM in 25 nM increments. QhTERT/FGFR2c cells (~10^5) were incubated with peptide at 4°C for 1 hour, washed with cold PBS, and the mean fluorescence intensities were measured using flow cytometry. The equilibrium dissociation constant kd=1/ka was calculated by performing a least squares fit of the data to the non-linear equation I=(I0+Imaxka[X])/([…]). I0 and Imax are the initial and maximum fluorescence intensities, corresponding to no peptide and at saturation, respectively, and [X] represents the concentration of the […] peptide. Prism 5.0 software (GraphPad Inc) was used to calculate kd.

[2] = test system: QhTERT cells that express FGFR2c; test: Apparent association time constant by flow cytometry; assay type: binding, human; conditions: 5 μM, RT, 0 to 30 min
Description: We measured the apparent association time constant of the peptide to QhTERT/FGFR2c cells to assess binding onset. Cells were grown to ~80% confluence in 10 cm dishes, and detached with PBS-based cell dissociation buffer (Invitrogen). Cells (~10^5 were incubated with 5 μM SRR-Cy5.5 at RT for various time intervals ranging from 0 to 30 min. The cells were centrifuged, and washed with cold PBS. Flow cytometry analysis was performed as described above, and the median fluorescence intensity (y) were measured on flow cytometry at different time points (t) using Flowjo software. The rate constant k was calculated by fitting the data to a first order kinetics model, y(t) = Imax[1-exp^(-kt)], where Imax = maximum value using Prism 5.0 software (GraphPad Inc).

[3] = test system: QhTERT cells that express FGFR2c; test: Confocal fluorescence microscopy, binding to QhTERT cells that express FGFR2c; assay type: cell-based, human
Text: (§1) All human esophageal specimens were obtained with written, informed patient consent per approval and guidelines of the University of Michigan Institutional Review Board (IRB). Human non-dysplastic Barrett's esophagus (BE) cells immortalized with hTert (QhTERT) were obtained from the American Type Culture Collection (ATCC) and cultured in keratinocyte-serum free medium containing bovine pituitary extract and human recombinant EGF (ThermoFisher #17005042). QhTERT cells with stable expression of FGFR2b or FGFR2c were provided (DGB). We cultured these cells with keratinocyte-serum free medium containing bovine pituitary extract and human recombinant EGF (ThermoFisher #17005042) and added 1 μg/mL of puromycin-dihydrochloride (Invitrogen #A11138-03). All cells were cultured at 37°C in 5% CO2, and were passaged using 0.25% EDTA containing trypsin (Mediatech Inc). A hemocytometer was used to determine cell number. Peptide synthesis reagents were obtained from either Anaspec or AAPPTEC with the highest grade available (>99% purity) and used without further purification. Solvents and other chemical reagents were obtained from Sigma-Aldrich, unless otherwise stated.
(§2) ~10^3 QhTERT/wt, QhTERT/FGFR2b, and QhTERT/FGFR2c cells were grown on cover glass to ~80% confluence. The cells were washed with PBS 1X and incubated with 1 μM of either peptide for 10 min at RT. The cells were then washed 3X in PBS, fixed with 4% paraformaldehyde (PFA) for 5 min, washed 1X with PBS, and then mounted on glass slides with ProLong Gold reagent containing DAPI (Invitrogen). Confocal fluorescence images were collected with Cy5.5 and DAPI filters (Leica Inverted SP5X 2-Photon FLIM confocal microscopes) using a 63X oil-immersion objective. Fluorescence intensities from 3 cells in each of 3 independent images were quantified using custom Matlab (Mathworks) software.

[4] = test system: sections of human esophagus ex vivo; test: Confocal microscopy of staining of human esophageal specimens ex vivo (SQ, BE, HGD, EAC)
Description: Formalin-fixed sections of human esophageal specimens were deparaffinized, and antigen retrieval was performed using standard methods. Briefly, the sections were incubated in xylene for 3 min 3X, washed with 100% ethanol for 2 min 2X, and washed with 95% ethanol for 2 min 2X. Rehydration was performed by washing in dH2O for 5 min 2X. Antigen unmasking was performed by boiling the slides in 10 mM sodium citrate buffer with 0.05% Tween at pH 6.0, and then maintaining at sub-boiling temperature for 15 min. The slides were cooled for 30 min, and the sections were washed in dH2O for 3 min 3X and in PBS for 5 min. Blocking was performed with DAKO protein blocking agent (X0909, DAKO) for 1 hour at RT. The peptides were incubated at a concentration of 1 μM for 10 min at RT. The sections were washed in PBS for 3 min 3X, and incubated with 1:1000 dilution of monoclonal anti-FGFR2 (Abcam, ab58201) overnight at 4°C.
The sections were then washed in PBS for 5 min 3X. A 1:500 dilution of AF488-labeled secondary antibody (goat anti-mouse) was added to each section and incubated for 30 min at RT. The secondary antibody solution was removed by washing with PBS for 5 min 3X. The sections were then mounted with ProLong Gold reagent containing DAPI (Invitrogen). The mean fluorescence intensities from 3 boxes (dimensions of 30×30 μm^2) located completely within the surface epithelium of each specimen were measured. […] Serial sections were processed for routine histology (H&E), and were reviewed by an expert gastrointestinal pathologist (HDA).

[5] = test system: QhTERT cells that express FGFR2b; test: Confocal fluorescence microscopy, binding to QhTERT cells that express FGFR2b; assay type: cell-based, human
Text: as §1, §2

QhTERT wild-type cells = test: Confocal fluorescence microscopy, binding to wild-type QhTERT cells; assay type: cell-based, human; conditions: 1 μM peptide, 10 min at RT, 63X
Text: as §1, with “Peptide synthesis reagents were obtained from either Anaspec or AAPPTEC with the highest grade available (>99% purity) and used without further purification. Solvents and other chemical reagents were obtained from Sigma-Aldrich, unless otherwise stated.” left out
~10^3 QhTERT/wt, QhTERT/FGFR2b, and QhTERT/FGFR2c cells were grown on cover glass to ~80% confluence. […] Confocal fluorescence images were collected with Cy5.5 and DAPI filters (Leica Inverted SP5X 2-Photon FLIM confocal microscopes) using a 63X oil-immersion objective. Fluorescence intensities from 3 cells in each of 3 independent images were quantified using custom Matlab (Mathworks) software.

[6] = test system: sections of human gastric cancer; test: Confocal microscopy of staining of human gastric cancer ex vivo
Text: We observed good co-localization of peptide and antibody binding on merged images, Supplementary Figure 6C. Representative histology (H&E) for gastric cancer is shown, Supplementary Figure 6D. […] Representative histology (H&E) for normal stomach is shown, Supplementary Figure 6H.

[7] = 1 μM peptide, 10 min at RT, confocal, 63X
[8] = compared with wild-type, log-transformed, ANOVA, 3 random cells on each of 3 slides

For SRRPASFRTARE [SRR^*-Cy5.5], the Kd [1] was 68 nM, the “apparent association time constant k” value ([2]; median fluorescence intensity by flow cytometry, first order kinetics, representative of 3 independent experiments) was 0.16 min⁻¹ and the “time scale for onset of binding” value ([2]; from k) was ~ 6.2 min. For the same sequence, the “cell surface fluorescence signal / binding” value [3, 7] was “strong signal”, the “mean fluorescence intensity versus control SPS^*-Cy5.5” value [3, 8] was “significantly greater mean fluorescence intensity” and the “mean T/B ratio, HGD and EAC versus BE and SQ” value ([4]; 3 boxes of 30×30 μm^2, n = 28, 33, 22, 17 specimens of SQ, BE, HGD, EAC) was “significantly higher”. The “mean fluorescence intensity, HGD and EAC versus BE” value ([4]; ANOVA, 4 means, log-transformed data, 3 boxes of 30×30 μm^2) was “significantly greater mean fluorescence intensity”, the “fluorescence intensity / staining, Barrett's esophagus (BE)” value ([4]; BE, n = 33 specimens, peptide 1 μM, 10 min at RT, antibody 1:1000 overnight at 4°C) was “minimal fluorescence intensity” and the “fluorescence intensity / staining, esophageal adenocarcinoma (EAC)” value ([4]; EAC, n = 17 specimens, peptide 1 μM, 10 min at RT, antibody 1:1000 overnight at 4°C) was “strong signal”. For the same sequence, the “fluorescence intensity / staining, high-grade dysplasia (HGD)” value ([4]; HGD, n = 22 specimens, peptide 1 μM, 10 min at RT, antibody 1:1000 overnight at 4°C) was “strong signal”, the “fluorescence intensity / staining, squamous (SQ)” value ([4]; SQ, n = 28 specimens, peptide 1 μM, 10 min at RT, antibody 1:1000 overnight at 4°C) was “minimal fluorescence intensity” and the “cell surface fluorescence signal / binding” value [5, 7] was “strong signal”. For the same sequence, the “mean fluorescence intensity versus control SPS^*-Cy5.5” value [5, 8] was “significantly greater mean fluorescence intensity”, the “cell surface fluorescence signal / binding” value (QhTERT wild-type cells) was “minimal signal” and the “mean fluorescence intensity, gastric cancer versus normal, SRR*-Cy5.5” value ([6]; P=7×10-17, paired two-sided t-test, 3 boxes of 30×30 μm2) was “significantly greater mean fluorescence intensity”. The “fluorescence intensity / binding, gastric cancer” value ([6]; gastric cancer sections ex vivo, n = 33 patients) was “strong fluorescence intensity” and the “staining, normal human stomach” value ([6]; normal stomach, comparison) was “minimal staining”.
